pIC50: −log10 of the molar value.

The text below walks through data of PMC8401736, “Identification and In Silico Characterization of Novel Helicobacter pylori Glucose-6-Phosphate Dehydrogenase Inhibitors” (Molecules, 2021).

One assay has as its target recombinant human HsG6PD (Homo sapiens, UniProt P11413). The assay is described as follows: Inhibition of recombinant human HsG6PD at 400 μM. Particulars: 400 μM compound. It counts as biochemical.
A further assay deals with HpG6PD enzyme (Helicobacter pylori, UniProt P56110). The assay is described as follows: Inactivation assays of the HpG6PD enzyme with increasing concentrations of compounds. It counts as biochemical. Particulars: for inhibition at 800 µM: 2 h, read-out: loss of HpG6PD activity; for pIC50: from plots of residual activity after incubation for 2 h at 37 °C, 200 μg/mL HpG6PD; for reduction of HpG6PD activity: at the highest concentration tested. The method, then:
Subsequently, we performed inactivation assays using different concentrations of compounds to analyze their concentration–activity effect. […] As each of the compound’s concentrations was increased, the residual HpG6PD activity decreased in different degrees. For example, the exposure of the HpG6PD enzyme to YGC-3 and YGC-4 induced the abolition of the enzyme activity in a very similar manner (Figure 3A), the HpG6PD enzyme lost 80% of its activity at 800 µM, but when the enzyme was incubated with YGC-1, we observed a 91% loss in activity at 800 μM. On the other hand, MGD-1 and MGD-2 inactivated the HpG6PD enzyme, with 80% and 72% reductions, respectively, at the highest concentration tested (Figure 3B). […] In contrast, JMM-3 inhibited the HpG6PD enzyme at 80% with 800 µM (Figure 3D).
Figure 3 Inactivation assays of the HpG6PD enzyme with chemical compounds. The HpG6PD protein was adjusted at a final concentration of 200 μg/mL and incubated with increasing concentrations of the (A) YGC family; (B) MGD family; (C) TDA-1 compound; and (D) JMM-3 compound. The residual activity was determined after 2 h of incubation at 37 °C. […] The values represent the mean ± standard deviation from three independent experiments, and standard errors were lower than 5%.
(§1) Enzymatic activity was spectrophotometrically determined following the reduction of NADP^+ at 340 nm. The standard reaction mix contains 50 mM Tris-HCl, pH 7.6, 3 mM MgCl2, 200 µM glucose 6 phosphate and 100 µM NADP^+. The reaction was started with the addition of 1 µg of the purified HpG6PD. One unit of activity was defined as the amount of HpG6PD that catalyzes the oxidation of 1 µmol of glucose 6 phosphate per minute.

Assay [1] concerns recombinant HpG6PD (H. pylori glucose-6-phosphate dehydrogenase). The assay is described as follows: High-throughput screening of HpG6PD residual activity at 400 μM. It counts as biochemical, Helicobacter pylori. Conditions: 400 μM compound, 5% DMSO, 0.2 mg/mL HpG6PD, 37 °C for two hours. The procedure: as §1
A chemical library of 55 compounds was evaluated through high-throughput screening (HTS) assays to determine those compounds with the ability to reduce the catalytic activity of the recombinant HpG6PD. Dr. Gabriel Navarrete-Vázquez from the Pharmacy Faculty of the Autonomous University of the State of Morelos provided the chemical compounds [32]. These compounds were selected based on the previously reported chemical inhibitors of human G6PD [21], prepared at a final concentration of 400 μM in 5% dimethyl sulfoxide (DMSO) (Sigma Aldrich, St. Louis, MO, USA), incubated with 0.2 mg/mL of HpG6PD (200 ng total) at 37 °C for two hours, and the HpG6PD residual activity was measured. In addition, the HpG6PD protein was incubated with 5% DMSO and used as a control.

Sequence of recombinant human HsG6PD (P11413 whole entry): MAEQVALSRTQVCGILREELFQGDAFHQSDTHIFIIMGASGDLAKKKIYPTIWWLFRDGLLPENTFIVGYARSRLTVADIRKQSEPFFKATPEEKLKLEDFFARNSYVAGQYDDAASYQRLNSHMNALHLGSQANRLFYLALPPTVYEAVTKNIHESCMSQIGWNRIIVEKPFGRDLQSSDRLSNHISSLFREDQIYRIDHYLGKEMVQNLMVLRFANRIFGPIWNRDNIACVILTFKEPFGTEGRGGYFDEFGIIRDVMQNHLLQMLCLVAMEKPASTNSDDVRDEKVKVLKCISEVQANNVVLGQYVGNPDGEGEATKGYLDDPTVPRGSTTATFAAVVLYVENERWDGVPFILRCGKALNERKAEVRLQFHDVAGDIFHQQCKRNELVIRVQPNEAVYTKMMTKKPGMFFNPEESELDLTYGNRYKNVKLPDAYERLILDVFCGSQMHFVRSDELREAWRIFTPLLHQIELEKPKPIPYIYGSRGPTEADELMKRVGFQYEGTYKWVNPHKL
Sequence of HpG6PD enzyme (P56110 whole entry): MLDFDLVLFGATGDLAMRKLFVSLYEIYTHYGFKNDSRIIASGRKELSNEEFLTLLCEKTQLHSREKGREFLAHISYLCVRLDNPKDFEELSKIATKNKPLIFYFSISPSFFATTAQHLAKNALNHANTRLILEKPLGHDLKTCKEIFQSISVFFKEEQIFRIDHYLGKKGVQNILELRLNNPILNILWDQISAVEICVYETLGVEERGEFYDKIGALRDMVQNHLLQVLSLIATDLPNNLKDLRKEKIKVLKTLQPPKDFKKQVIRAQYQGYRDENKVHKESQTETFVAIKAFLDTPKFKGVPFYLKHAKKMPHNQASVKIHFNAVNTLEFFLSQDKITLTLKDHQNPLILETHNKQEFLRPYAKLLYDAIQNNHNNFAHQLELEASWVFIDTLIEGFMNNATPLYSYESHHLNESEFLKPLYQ

As to `COc1cc(CCC(=O)O)ccc1OCc1ccc(-c2ccccc2C#N)cc1` [JMM-3], on recombinant human HsG6PD, the inhibition at 400 µM came to 3%. Also, at HpG6PD enzyme, the inhibition at 800 µM is 80% and the pIC50 (as a rule, −log10 of the IC50, conventionally taken in molar units) is 3.52. Also, the “HpG6PD Inhibition (%) at (400 μM)” value in assay [1] came out at 67%.
Consider `O=C(O)CCc1ccc(NC(=O)CSc2nc3ccccc3[nH]2)cc1` [MGD-1], for which the inhibition at 400 µM on recombinant human HsG6PD was found to be 4%. Besides, the “reduction of HpG6PD activity” value at HpG6PD enzyme (incubation for 2 h at 37 °C) is listed as 80%. The molecule further had a pIC50 against HpG6PD enzyme of 3.33. For the same molecule, the “HpG6PD Inhibition (%) at (400 μM)” value in assay [1] is listed as 50%.
For `O=C(O)CCc1ccc(NC(=O)CSc2nc3ccccc3o2)cc1` [MGD-2] the same measures were 2%, 72%, 3.47 and 55%.
Turning to `COc1cc(/C=C2\SC(=O)NC2=O)ccc1OCCN1CCCCC1` [TDA-1], the inhibition at 400 µM at recombinant human HsG6PD came out at 10%. Further, the “loss of HpG6PD activity” value at HpG6PD enzyme (by 500 µM, incubation for 2 h at 37 °C) is “total loss of activity”. In addition, the pIC50 at HpG6PD enzyme was 3.69. Moreover, the “HpG6PD Inhibition (%) at (400 μM)” value in assay [1] (400 µM) is given as 91%.
For `COc1ccc(/C=C2\SC(=O)NC2=O)cc1OCc1cccc2ccccc12` [YGC-1], the inhibition at 400 µM on recombinant human HsG6PD worked out at 8%. Besides, at HpG6PD enzyme, the inhibition at 800 µM came out at 91% and the pIC50 was 3.51. Moreover, the “HpG6PD Inhibition (%) at (400 μM)” value in assay [1] is reported as 84%.
Taken in the same sequence, the figures for `COc1ccc(/C=C2\SC(=O)NC2=O)cc1OCc1cccc(-c2ccccc2)c1` [YGC-3] were 0%, 80%, 3.42 and 50%.
Take `COc1ccc(/C=C2\SC(=O)NC2=O)cc1Oc1nc2ccccc2[nH]1` [YGC-4]: at recombinant human HsG6PD, the inhibition at 400 µM was determined as 18%. Further, on HpG6PD enzyme, the inhibition at 800 µM turned out to be 80% and the pIC50 was 3.30. The “HpG6PD Inhibition (%) at (400 μM)” value in assay [1] is 44%.
